Test results: ChEMBL document CHEMBL1201862, “PubChem BioAssay data set” (2004)
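Cells were grown in 96-well plates and exposed to each compound for 48 hours at five concentrations; endpoints were interpolated linearly between bracketing concentrations, or set to the highest concentration if not reached. At the GI50, growth is halved.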 Active and inactive are the calls of the source. Cut-off read from the data, not from the text of the source: active = GI50 up to about 1.1 µM and inactive = higher.

What was measured:
Assay in all cases: NCI anticancer screen, dose series, 48 h
SF-295 = tested on: SF-295
DU-145 = tested on: DU-145
A549 = tested on: A549
SNB-19 = tested on: SNB-19
COLO 205 = tested on: COLO 205
HOP-92 = tested on: HOP-92
MDA-N = tested on: MDA-N
OVCAR-8 = tested on: OVCAR-8
SNB-75 = tested on: SNB-75
MDA-MB-231 = tested on: MDA-MB-231
Hs-578T = tested on: Hs-578T
UACC-62 = tested on: UACC-62
M14 = tested on: M14
SK-MEL-28 = tested on: SK-MEL-28
786-0 = tested on: 786-0
HCT-15 = tested on: HCT-15
IGROV-1 = tested on: IGROV-1
OVCAR-3 = tested on: OVCAR-3
KM12 = tested on: KM12
NCI-H522 = tested on: NCI-H522
ACHN = tested on: ACHN
NCI-H226 = tested on: NCI-H226
CCRF-CEM = tested on: CCRF-CEM
SR = tested on: SR
K562 = tested on: K562
U-251 = tested on: U-251
NCI-H460 = tested on: NCI-H460
OVCAR-4 = tested on: OVCAR-4
UACC-257 = tested on: UACC-257
MDA-MB-435 = tested on: MDA-MB-435
SW-620 = tested on: SW-620
BT-549 = tested on: BT-549
NCI-H23 = tested on: NCI-H23
SK-MEL-2 = tested on: SK-MEL-2
Malme-3M = tested on: Malme-3M
UO-31 = tested on: UO-31
OVCAR-5 = tested on: OVCAR-5
SF-268 = tested on: SF-268
HL-60 = tested on: HL-60
TK-10 = tested on: TK-10
MCF7 = tested on: MCF7
LOX IMVI = tested on: LOX IMVI
RPMI-8226 = tested on: RPMI-8226
SN12C = tested on: SN12C
T47D = tested on: T47D
HT-29 = tested on: HT-29
HCC 2998 = tested on: HCC 2998
MOLT-4 = tested on: MOLT-4
RXF 393 = tested on: RXF 393
SK-MEL-5 = tested on: SK-MEL-5
A498 = tested on: A498
PC-3 = tested on: PC-3
EKVX = tested on: EKVX
HCT-116 = tested on: HCT-116
HOP-62 = tested on: HOP-62
SF-539 = tested on: SF-539
NCI/ADR-RES = tested on: NCI/ADR-RES
SK-OV-3 = tested on: SK-OV-3
CAKI-1 = tested on: CAKI-1

Compound: CN1CCN(C(=S)N(C(=O)c2ccc(Cl)cc2)C2CCCCC2)CC1
- GI50 (SF-295): > 100 µM (inactive)
- GI50 (DU-145): > 100 µM (inactive)
- GI50 (A549): > 100 µM (inactive)
- GI50 (SNB-19): > 100 µM (inactive)
- GI50 (COLO 205): > 100 µM (inactive)
- GI50 (HOP-92): > 100 µM (inactive)
- GI50 (MDA-N): > 100 µM (inactive)
- GI50 (OVCAR-8): > 100 µM (inactive)
- GI50 (SNB-75): 20 µM (inactive)
- GI50 (MDA-MB-231): > 100 µM (inactive)
- GI50 (Hs-578T): 27.4 µM (inactive)
- GI50 (UACC-62): > 100 µM (inactive)
- GI50 (M14): > 100 µM (inactive)
- GI50 (SK-MEL-28): > 100 µM (inactive)
- GI50 (786-0): > 100 µM (inactive)
- GI50 (HCT-15): > 100 µM
- GI50 (IGROV-1): > 100 µM (inactive)
- GI50 (OVCAR-3): > 100 µM (inactive)
- GI50 (KM12): > 100 µM (inactive)
- GI50 (NCI-H522): > 100 µM (inactive)
- GI50 (ACHN): > 100 µM (inactive)
- GI50 (NCI-H226): > 100 µM (inactive)
- GI50 (CCRF-CEM): 72.4 µM (inactive)
- GI50 (SR): 58.9 µM (inactive)
- GI50 (K562): 51.3 µM (inactive)
- GI50 (U-251): > 100 µM (inactive)
- GI50 (NCI-H460): > 100 µM (inactive)
- GI50 (OVCAR-4): > 100 µM (inactive)
- GI50 (UACC-257): > 100 µM (inactive)
- GI50 (MDA-MB-435): > 100 µM (inactive)
- GI50 (SW-620): > 100 µM (inactive)
- GI50 (BT-549): > 100 µM (inactive)
- GI50 (NCI-H23): > 100 µM (inactive)
- GI50 (SK-MEL-2): > 100 µM (inactive)
- GI50 (Malme-3M): > 100 µM (inactive)
- GI50 (UO-31): > 100 µM (inactive)
- GI50 (OVCAR-5): > 100 µM (inactive)
- GI50 (SF-268): > 100 µM (inactive)
- GI50 (HL-60): 61.7 µM (inactive)
- GI50 (TK-10): > 100 µM (inactive)
- GI50 (MCF7): > 100 µM (inactive)
- GI50 (LOX IMVI): > 100 µM (inactive)
- GI50 (RPMI-8226): > 100 µM (inactive)
- GI50 (SN12C): > 100 µM (inactive)
- GI50 (T47D): > 100 µM (inactive)
- GI50 (HT-29): > 100 µM (inactive)
- GI50 (HCC 2998): > 100 µM (inactive)
- GI50 (MOLT-4): 63.1 µM (inactive)
- GI50 (RXF 393): > 100 µM (inactive)
- GI50 (SK-MEL-5): > 100 µM (inactive)

Compound: Nc1ncnc2c1ncn2[C@@H]1C[C@@H]1CO
- GI50 (SF-295): > 100 µM (inactive)
- GI50 (A549): > 100 µM (inactive)
- GI50 (A498): > 100 µM (inactive)
- GI50 (SNB-19): > 100 µM (inactive)
- GI50 (MDA-N): > 100 µM (inactive)
- GI50 (PC-3): > 100 µM (inactive)
- GI50 (OVCAR-8): > 100 µM (inactive)
- GI50 (MDA-MB-231): > 100 µM (inactive)
- GI50 (Hs-578T): > 100 µM (inactive)
- GI50 (786-0): > 100 µM (inactive)
- GI50 (HCT-15): > 100 µM
- GI50 (EKVX): > 100 µM (inactive)
- GI50 (OVCAR-3): > 100 µM (inactive)
- GI50 (KM12): > 100 µM (inactive)
- GI50 (NCI-H522): > 100 µM (inactive)
- GI50 (ACHN): > 100 µM (inactive)
- GI50 (NCI-H226): > 100 µM (inactive)
- GI50 (CCRF-CEM): > 100 µM (inactive)
- GI50 (SR): > 100 µM (inactive)
- GI50 (K562): > 100 µM (inactive)
- GI50 (U-251): > 100 µM (inactive)
- GI50 (NCI-H460): > 100 µM (inactive)
- GI50 (UACC-257): > 100 µM (inactive)
- GI50 (MDA-MB-435): > 100 µM (inactive)
- GI50 (SW-620): > 100 µM (inactive)
- GI50 (BT-549): > 100 µM (inactive)
- GI50 (HCT-116): > 100 µM (inactive)
- GI50 (NCI-H23): > 100 µM (inactive)
- GI50 (SK-MEL-2): > 100 µM (inactive)
- GI50 (Malme-3M): > 100 µM (inactive)
- GI50 (UO-31): > 100 µM (inactive)
- GI50 (OVCAR-5): > 100 µM (inactive)
- GI50 (HOP-62): > 100 µM (inactive)
- GI50 (HL-60): > 100 µM (inactive)
- GI50 (MCF7): > 100 µM (inactive)
- GI50 (LOX IMVI): > 100 µM (inactive)
- GI50 (SF-539): > 100 µM (inactive)
- GI50 (RPMI-8226): > 100 µM (inactive)
- GI50 (SN12C): > 100 µM (inactive)
- GI50 (T47D): > 100 µM (inactive)
- GI50 (HT-29): > 100 µM (inactive)
- GI50 (NCI/ADR-RES): > 100 µM (inactive)
- GI50 (HCC 2998): > 100 µM (inactive)
- GI50 (MOLT-4): > 100 µM (inactive)

Compound: Cc1ccc(-n2nnc(C(N)=O)c2O)cc1
- GI50 (SF-295): > 100 µM (inactive)
- GI50 (DU-145): > 100 µM (inactive)
- GI50 (A549): > 100 µM (inactive)
- GI50 (SNB-19): > 100 µM (inactive)
- GI50 (COLO 205): > 100 µM (inactive)
- GI50 (MDA-N): > 100 µM (inactive)
- GI50 (PC-3): > 100 µM (inactive)
- GI50 (OVCAR-8): > 100 µM (inactive)
- GI50 (SNB-75): > 100 µM (inactive)
- GI50 (SK-OV-3): > 100 µM (inactive)
- GI50 (MDA-MB-231): > 100 µM (inactive)
- GI50 (Hs-578T): > 100 µM (inactive)
- GI50 (UACC-62): > 100 µM (inactive)
- GI50 (M14): > 100 µM (inactive)
- GI50 (SK-MEL-28): > 100 µM (inactive)
- GI50 (786-0): > 100 µM (inactive)
- GI50 (HCT-15): > 100 µM
- GI50 (IGROV-1): > 100 µM (inactive)
- GI50 (EKVX): > 100 µM (inactive)
- GI50 (OVCAR-3): > 100 µM (inactive)
- GI50 (KM12): > 100 µM (inactive)
- GI50 (NCI-H522): > 100 µM (inactive)
- GI50 (ACHN): > 100 µM (inactive)
- GI50 (NCI-H226): > 100 µM (inactive)
- GI50 (CCRF-CEM): > 100 µM (inactive)
- GI50 (K562): > 100 µM (inactive)
- GI50 (U-251): > 100 µM (inactive)
- GI50 (NCI-H460): > 100 µM (inactive)
- GI50 (OVCAR-4): > 100 µM (inactive)
- GI50 (UACC-257): > 100 µM (inactive)
- GI50 (MDA-MB-435): > 100 µM (inactive)
- GI50 (SW-620): > 100 µM (inactive)
- GI50 (CAKI-1): > 100 µM (inactive)
- GI50 (BT-549): > 100 µM (inactive)
- GI50 (HCT-116): > 100 µM (inactive)
- GI50 (NCI-H23): > 100 µM (inactive)
- GI50 (Malme-3M): > 100 µM (inactive)
- GI50 (UO-31): > 100 µM (inactive)
- GI50 (OVCAR-5): > 100 µM (inactive)
- GI50 (SF-268): > 100 µM (inactive)
- GI50 (HOP-62): > 100 µM (inactive)
- GI50 (HL-60): > 100 µM (inactive)
- GI50 (TK-10): > 100 µM (inactive)
- GI50 (MCF7): > 100 µM (inactive)
- GI50 (RPMI-8226): > 100 µM (inactive)
- GI50 (SN12C): > 100 µM (inactive)
- GI50 (T47D): > 100 µM (inactive)
- GI50 (HT-29): > 100 µM (inactive)
- GI50 (NCI/ADR-RES): > 100 µM (inactive)
- GI50 (HCC 2998): > 100 µM (inactive)
- GI50 (MOLT-4): > 100 µM (inactive)
- GI50 (RXF 393): > 100 µM (inactive)
- GI50 (SK-MEL-5): > 100 µM (inactive)
